Assay results: patent US9290464B2 (priority 2010, dated 2016)

How the values were obtained:
MPTP-induced mouse [1] = assay: Concentration of dopamine in striatum of MPTP-induced mouse (HPLC); format: in vivo, C57BL/6 mice; conditions: 1 mg/kg oral once a day, FIG. 4
Description: 7 days after the compounds described above are respectively administered to the three groups, the mice in each group were sacrificed by cervical dislocation and brain tissues were immediately taken out of the mice. Striatum was collected from the brain tissue, 0.5 ml of a HPLC assay diluent (0.1 M HClO4, 0.1 mM EDTA) was added to the striatum, and a tissue homogenate was then prepared using an ultrasonic processor. The homogenate was centrifuged at 12,000 rpm for 15 minutes, and the supernatant was filtered with a nitrocellulose filter (0.2 um, Millipore). For HPLC analysis, HR-80 column (80 mm×4.6 mm, particle size: 3 μm ESA, USA) was used, the flow rate of a mobile phase (0.07 M monobasic sodium phosphate, 1 mM sodium octasulfonic acid, 0.1 uM EDTA, 5% acetonitrile, pH 3.2) was maintained at 0.7 ml/min, and the electrode potential of an electrochemical detector (Coulochem III, ESA, USA) was at E1=−100 mV, E2=350 mV.

caspase 3 = assay: Activity of caspase 3/7 (Apo-ONE) in MPP+-treated cells; format: cell-based, human; conditions: 2 mM MPP+, 24 hours; CBI 1, 5, 10 and 50 nM, rasagiline 50 nM; FIG. 18
Description: SH-SY5Y cells were incubated in a 96-well plate at a concentration of 5×10^5 cells/well under the same conditions as described above, the cells were treated with 2 mM of MPP^+ and CBI (1, 5, 10 and 50 nM) or rasagiline (50 nM), and the resulting cells were incubated for 24 hours. Subsequently, 100 μl of Apo-ONE caspase 3/7 reagent (Promega, G7790) was added thereto and mixed therewith, and the resultant was further incubated for 4 hours. After the incubation was terminated, fluorescence was measured at an excitation wavelength of 495 nm and an emission wavelength of 521 nm by using a fluorescence plate reader (GeminiXPS, Molecular Devices).

[2] = system: MAO-B-deficient human neuroblastoma SH-SY5Y cells; assay: Reactive oxygen species (DCF-DA staining) in MPP+-treated cells; format: cell-based; conditions: 2 mM MPP+, 50 nM, 24 hours; FIGS. 19 and 20
Description: In this embodiment, MAO-B-deficient human neuroblastoma SH-SY5Y cells (Korean Cell Line Bank) were used. The cells were cultured in a DMEM medium at 37° C. with 5% of CO2 for 24 hours. The cultured cells were divided into three groups, 2 mM of MPP^+ was added to each group, one of the three groups was treated with 50 nM of CBI, one of the other two groups was treated with 50 nM of rasagiline, and the three groups were further incubated with 5% of CO2 at 37° C. for 24 hours. The group with only MPP^+ added thereto was incubated under the same conditions as described above. Subsequently, the cells were stained with 2,7-dichlorofluorescein diacetate (DCF-DA), which is a fluorescence dye capable of detecting reactive oxygen species, and then observed using a confocal microscope (Nikon Co., Japan).

MPTP-induced mouse [3] = assay: Number of neurites and spines per neuron in MPTP-induced mouse (confocal microscopy); format: in vivo, C57BL/6 mice; conditions: 1 mg/kg oral once a day for 10 days after MPTP
Description: To observe whether or not the number of neurites and spines per neuron in the tissues was increased, a coronal slice with a thickness of 200 um containing striatum or substantia nigra was prepared using a vibratome. Each group of mice was sacrificed, and the brain was taken out of each group and then placed in a cold, highly-concentrated sucrose dissection buffer bubbled with carbogen (5% CO2 and 95% O2) (87 mM NaCl, 2.5 mM KCl, 1.25 mM NaH2PO4, 25 mM NaHCO3, 1 mM CaCl2, 3 mM MgCl2, 10 mM dextrose, and 75 mM sucrose). While the vibratome was performed, a slicing chamber was filled with the uniformly carbogenated sucrose dissection buffer. After the slicing process was terminated, all the slices were washed with PBS, and fixed with 4% paraformaldehyde in a PBS solution. The fixed brain slices were placed on a 1.5% agarose (in PBS) block. Images thereof were obtained using a confocal microscope (ZEISS LSM 510 META) by using Zeiss LSM image browser software (Carl Zeiss Microimaging, Germany, version 4.0 SP2).

In the case of `C#CCN[C@@H]1CCc2ccccc21` [rasagiline, R(+)-N-propargyl-1-aminoindan, reference compound], the “restoration of the concentration of dopamine in striatum compared with normal mice” value (MPTP-induced mouse [1]) is reported as “about 40%”, the “activity of caspase 3” value (caspase 3) is reported as “reduced” and the reactive oxygen species [2] is reported as “significantly decreased”. The number of neurites (MPTP-induced mouse [3]; FIG. 23) was “did not exhibit statistical significance” and the number of spines (MPTP-induced mouse [3]; FIG. 24) was “an increase in the number of spines was observed”.
